Test results reported in ChEMBL document CHEMBL1156232, “Non-classical antifolates. Part 2: synthesis, biological evaluation, and molecular modeling study of some new 2,6-substituted-quinazolin-4-ones” (Bioorg Med Chem, 2010).
In brackets after ≈: the same amount, converted by molar mass. Activity calls are given as the source filed them. The calls are words filed in the database; no cut-off is given here.

Legend:
[1] = Antitumor activity against human leukemia cells after 48 hrs by SRB assay; type: functional; conditions: Leukemia cell
[2] = Antitumor activity against human non small cell lung cancer cells after 48 hrs by SRB assay; type: functional; conditions: Cancer cell lines
[3] = Antitumor activity against human colon cancer cells after 48 hrs by SRB assay; type: functional; conditions: Cancer cell lines
[4] = Antitumor activity against human CNS cancer cells after 48 hrs by SRB assay; type: functional; conditions: Cancer cell lines
[5] = Antitumor activity against human melanoma cells after 48 hrs by SRB assay; type: functional; conditions: Melanoma cell
[6] = Antitumor activity against human ovarian cancer cells after 48 hrs by SRB assay; type: functional; conditions: Cancer cell lines
[7] = Antitumor activity against human renal cancer cells after 48 hrs by SRB assay; type: functional; conditions: Cancer cell lines
[8] = Antitumor activity against human prostate cancer cells after 48 hrs by SRB assay; type: functional; conditions: Cancer cell lines
[9] = Antitumor activity against human breast cancer cells after 48 hrs by SRB assay; type: functional; conditions: Cancer cell lines
Staphylococcus aureus [10] = assay: Antibacterial activity against Staphylococcus aureus at 200 ug/disk after 24 hrs by disk diffusion method; type: functional; conditions: for zone of inhibition at 200 µg/disc: read-out: DIZ
Staphylococcus aureus [11] = assay: Antibacterial activity against Staphylococcus aureus after 24 hrs by microdilution susceptibility method; type: functional
Bacillus subtilis [12] = assay: Antibacterial activity against Bacillus subtilis at 200 ug/disk after 24 hrs by disk diffusion method; type: functional; conditions: for zone of inhibition at 200 µg/disc: read-out: DIZ
Bacillus subtilis [13] = assay: Antibacterial activity against Bacillus subtilis after 24 hrs by microdilution susceptibility method; type: functional
Micrococcus luteus [14] = assay: Antibacterial activity against Micrococcus luteus at 200 ug/disk after 24 hrs by disk diffusion method; type: functional; conditions: for zone of inhibition at 200 µg/disc: Micrococcus luteus, 24 h, read-out: DIZ
Micrococcus luteus [15] = assay: Antibacterial activity against Micrococcus luteus after 24 hrs by microdilution susceptibility method; type: functional
Escherichia coli [16] = assay: Antibacterial activity against Escherichia coli at 200 ug/disk after 24 hrs by disk diffusion method; type: functional; conditions: for zone of inhibition at 200 µg/disc: read-out: DIZ
Escherichia coli [17] = assay: Antibacterial activity against Escherichia coli after 24 hrs by microdilution susceptibility method; type: functional
Pseudomonas aeruginosa [18] = assay: Antibacterial activity against Pseudomonas aeruginosa at 200 ug/disk after 24 hrs by disk diffusion method; type: functional
Candida albicans [19] = assay: Antifungal activity against Candida albicans at 200 ug/disk after 48 hrs by disk diffusion method; type: functional, organism-based
Candida albicans [20] = assay: Antifungal activity against Candida albicans after 48 hrs by microdilution susceptibility method; type: functional, organism-based
Dihydrofolate reductase [21] = biological target: T1, Dihydrofolate reductase (Bos taurus, UniProt P00376)
T1 sequence (P00376 whole entry): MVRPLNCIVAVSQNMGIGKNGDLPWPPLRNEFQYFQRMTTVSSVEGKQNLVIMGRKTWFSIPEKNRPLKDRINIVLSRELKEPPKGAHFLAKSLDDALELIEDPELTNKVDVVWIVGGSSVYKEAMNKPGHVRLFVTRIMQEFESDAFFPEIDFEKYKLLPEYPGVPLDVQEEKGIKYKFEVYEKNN
Description: Inhibition of bovine DHFR after 2 mins

Dihydrofolate reductase [22] = biological target: T2, Dihydrofolate reductase (Homo sapiens, UniProt P00374)
T2 sequence (P00374 whole entry): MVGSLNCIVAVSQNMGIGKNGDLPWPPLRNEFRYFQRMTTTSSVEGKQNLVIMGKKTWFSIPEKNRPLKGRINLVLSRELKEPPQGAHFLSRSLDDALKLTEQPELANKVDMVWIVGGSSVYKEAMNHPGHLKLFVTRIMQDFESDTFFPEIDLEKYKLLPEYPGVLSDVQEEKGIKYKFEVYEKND
Description: Inhibition of human DHFR after 2 mins

Staphylococcus aureus [23] = assay: Antibacterial activity against Staphylococcus aureus at 100 ug/disk after 24 hrs by disk diffusion method; type: functional
Bacillus subtilis [24] = assay: Antibacterial activity against Bacillus subtilis at 100 ug/disk after 24 hrs by disk diffusion method; type: functional
MDA-MB-468 = assay: Antitumor activity against human MDA-MB-468 cells after 48 hrs by SRB assay; type: functional; conditions: MDA-MB-468, 48 h
HT-29 = assay: Antitumor activity against human HT-29 cells after 48 hrs by SRB assay; type: functional; conditions: HT-29, 48 h
OVCAR-4 = assay: Antitumor activity against human OVCAR4 cells after 48 hrs by SRB assay; type: functional; conditions: OVCAR-4, 48 h
Pseudomonas aeruginosa [25] = assay: Antibacterial activity against Pseudomonas aeruginosa after 24 hrs by microdilution susceptibility method; type: functional

| Compound | GI50 [1] [µM] | TGI [1] [µM] | GI50 [2] [µM] | TGI [2] [µM] | GI50 [3] [µM] | TGI [3] [µM] | GI50 [4] [µM] | TGI [4] [µM] | GI50 [5] [µM] | zone of inhibition at 200 µg/disc (Staphylococcus aureus [10]) [mm] | MIC (Staphylococcus aureus [11]) [mg/L] | zone of inhibition at 200 µg/disc (Bacillus subtilis [12]) [mm] | MIC (Bacillus subtilis [13]) [mg/L] | MIC (Micrococcus luteus [15]) [mg/L] | zone of inhibition at 200 µg/disc (Escherichia coli [16]) [mm] | diameter of the inhibition zone (DIZ) (Pseudomonas aeruginosa [18]) | Activity (Candida albicans [19]) | Activity (Candida albicans [20]) | IC50 (Dihydrofolate reductase [21]) [µM] | IC50 (Dihydrofolate reductase [22]) [µM] | further results |
| --- | --- | --- | --- | --- | --- | --- | --- | --- | --- | --- | --- | --- | --- | --- | --- | --- | --- | --- | --- | --- | --- |
| O=c1[nH]cc(F)c(=O)[nH]1 [FLUOROURACIL] | 15.1 | > 100 | > 100 | > 100 | 8.4 | > 100 | 72.1 | > 100 | 70.6 | – | – | – | – | – | – | – | – | – | – | – | TGI [5]: > 100 µM; GI50 [6]: 61.4 µM; TGI [6]: > 100 µM; GI50 [7]: 45.6 µM; TGI [7]: > 100 µM; GI50 [8]: 22.7 µM; TGI [8]: > 100 µM; GI50 [9]: 76.4 µM; TGI [9]: > 100 µM |
| C=CCSc1nc2ccc(NC/C=C/c3ccccc3)cc2c(=O)n1Cc1ccccc1 | – | – | – | – | – | – | – | – | – | 19 | 8 (≈ 18.2 µM) | 20 | 4 (≈ 9.1 µM) | 16 (≈ 36.4 µM) | 18 | inactive | inactive | inactive | 5 | 3 | zone of inhibition at 200 µg/disc (Micrococcus luteus [14]): 16 mm; MIC (Escherichia coli [17]): 8 mg/L (≈ 18.2 µM) |
| O=c1c2cc([N+](=O)[O-])ccc2nc(S)n1Cc1ccccc1 | – | – | – | – | – | – | – | – | – | 20 | 4 (≈ 12.8 µM) | 18 | 8 (≈ 25.5 µM) | 16 (≈ 51.1 µM) | – | inactive | inactive | inactive | 15 | – | zone of inhibition at 200 µg/disc (Micrococcus luteus [14]): 16 mm; diameter of the inhibition zone (DIZ) (Escherichia coli [16]): inactive |
| CC(=O)NS(=O)(=O)c1ccc(N)cc1 [SULFACETAMIDE] | – | – | – | – | – | – | – | – | – | – | 1 (≈ 4.67 µM) | 25 | 2 (≈ 9.34 µM) | – | – | – | – | – | 22 | 18 | zone of inhibition at 100 µg/disc (Staphylococcus aureus [23]; read-out: DIZ): 28 mm; zone of inhibition at 100 µg/disc (Bacillus subtilis [24]; read-out: DIZ): 25 mm |
| Nc1ccc2ncn(Cc3ccccc3)c(=O)c2c1 | – | – | – | – | – | – | – | – | – | 24 | 2 (≈ 7.96 µM) | 28 | 2 (≈ 7.96 µM) | 4 (≈ 15.9 µM) | 22 | inactive | inactive | inactive | 40 | – | zone of inhibition at 200 µg/disc (Micrococcus luteus [14]): 20 mm; MIC (Escherichia coli [17]): 4 mg/L (≈ 15.9 µM) |
| C=CCSc1nc2ccc(NC(=O)/C=C/c3ccccc3)cc2c(=O)n1Cc1ccccc1 | – | – | – | – | – | – | – | – | – | 16 | 8 (≈ 17.6 µM) | 18 | 8 (≈ 17.6 µM) | 8 (≈ 17.6 µM) | 18 | inactive | inactive | inactive | 0.7 | 0.5 | diameter of the inhibition zone (DIZ) (Micrococcus luteus [14]): 18 mm; MIC (Escherichia coli [17]): 8 mg/L (≈ 17.6 µM) |
| CSc1nc2ccc(NC(=O)/C=C/c3ccccc3)cc2c(=O)n1Cc1ccccc1 | 51.6 | > 100 | 1.7 | 80.9 | 34.5 | > 100 | 1.9 | 68.4 | 2.4 | – | – | – | – | – | – | inactive | inactive | inactive | 0.6 | 1 | diameter of the inhibition zone (DIZ) (Staphylococcus aureus [10]): inactive; diameter of the inhibition zone (DIZ) (Bacillus subtilis [12]): inactive; diameter of the inhibition zone (DIZ) (Micrococcus luteus [14]): inactive; diameter of the inhibition zone (DIZ) (Escherichia coli [16]): inactive; GI50 (MDA-MB-468): 2.2 µM; TGI [5]: 26.9 µM; GI50 [6]: 1.1 µM; TGI [6]: > 100 µM; GI50 [7]: 2.9 µM; TGI [7]: > 100 µM; GI50 [8]: 1.6 µM; TGI [8]: > 100 µM; GI50 [9]: 3 µM; TGI [9]: > 100 µM |
| O=C(/C=C/c1ccccc1)Nc1ccc2nc(SC/C=C/c3ccccc3)n(Cc3ccccc3)c(=O)c2c1 | > 100 | > 100 | 2.2 | 76.4 | 1.9 | > 100 | 3 | 37 | 2.2 | – | – | – | – | – | – | – | inactive | inactive | 0.9 | 0.5 | GI50 (HT-29): 0.6 µM; GI50 (OVCAR-4): 0.4 µM; TGI [5]: 86.9 µM; GI50 [6]: 3.3 µM; TGI [6]: > 100 µM; GI50 [7]: 2.6 µM; TGI [7]: 68 µM; GI50 [8]: > 100 µM; TGI [8]: > 100 µM; GI50 [9]: 2.5 µM; TGI [9]: 68.6 µM |
| GENTAMICIN | – | – | – | – | – | – | – | – | – | – | – | – | – | – | – | – | – | – | – | – | inhibition zone (IZ) (Bacillus subtilis [12]): 19 mm; inhibition zone (IZ) (Staphylococcus aureus [23]): 21 mm; inhibition zone (IZ) (Bacillus subtilis [24]): 19 mm |
| O=c1c2cc([N+](=O)[O-])ccc2nc(SC/C=C/c2ccccc2)n1Cc1ccccc1 | – | – | – | – | – | – | – | – | – | – | – | – | – | – | 21 | – | inactive | inactive | 5 | 3 | diameter of the inhibition zone (DIZ) (Staphylococcus aureus [10]): inactive; diameter of the inhibition zone (DIZ) (Bacillus subtilis [12]): inactive; diameter of the inhibition zone (DIZ) (Micrococcus luteus [14]): inactive; zone of inhibition at 200 µg/disc (Pseudomonas aeruginosa [18]; read-out: DIZ): 17 mm; MIC (Pseudomonas aeruginosa [25]): 16 mg/L (≈ 37.3 µM) |
